Reference: ChEMBL document CHEMBL1817541, “Synthesis and Evaluation of the α-D-/α-L-Rhamnosyl and Amicetosyl Digitoxigenin Oligomers as Anti-tumor Agents” (ACS Med Chem Lett, 2011)

Tests used:
Type in all cases: functional
NCI-H460 [1] = assay: Cytotoxicity against human NCI-H460 cell assessed as cell death at 10 nM after 12 hrs by Hoechst 33342/propidium iodide staining based fluorescence microscopy
NCI-H460 [2] = assay: Cytotoxicity against human NCI-H460 cell assessed as cell death at 50 nM after 12 hrs by Hoechst 33342/propidium iodide staining based fluorescence microscopy
NCI-H460 [3] = assay: Cytotoxicity against human NCI-H460 cell assessed as cell death at 100 nM after 12 hrs by Hoechst 33342/propidium iodide staining based fluorescence microscopy
NCI-H460 [4] = assay: Cytotoxicity against human NCI-H460 cell assessed as cell death at 500 nM after 12 hrs by Hoechst 33342/propidium iodide staining based fluorescence microscopy
NCI-H460 [5] = assay: Cytotoxicity against human NCI-H460 cell assessed as cell death at 1 uM after 12 hrs by Hoechst 33342/propidium iodide staining based fluorescence microscopy
NCI-H460 [6] = assay: Cytotoxicity against human NCI-H460 cells in serum free medium assessed as cell death at 10 uM after 12 hrs by Hoechst 33342/propidium iodide staining based fluorescence microscopy
NCI-H460 [7] = assay: Cytotoxicity against human NCI-H460 cell assessed as cell death at 100 uM after 12 hrs by Hoechst 33342/propidium iodide staining based fluorescence microscopy
NCI-H460 [8] = assay: Cytotoxicity against human NCI-H460 cell assessed as cell death after 12 hrs by Hoechst 33342/propidium iodide staining based fluorescence microscopy; conditions: NCI-H460, 12 h
NCI-H460 [9] = assay: Induction of apoptosis in human NCI-H460 cells in at 50 nM after 12 hrs by Hoechst 33342/propidium iodide staining based fluorescence microscopy
MOLT-4 = assay: Cytotoxicity against human MOLT4 cells after 48 hrs by sulforhodamine B assay; conditions: MOLT-4, 48 h
RPMI-8226 = assay: Cytotoxicity against human RPMI8226 cells after 48 hrs by sulforhodamine B assay; conditions: RPMI-8226, 48 h
SR = assay: Cytotoxicity against human SR cells after 48 hrs by sulforhodamine B assay
A549 = assay: Cytotoxicity against human A549 cells after 48 hrs by sulforhodamine B assay; conditions: A549, 48 h
EKVX = assay: Cytotoxicity against human EKVX cells after 48 hrs by sulforhodamine B assay
HOP-62 = assay: Cytotoxicity against human HOP62 cells after 48 hrs by sulforhodamine B assay; conditions: HOP-62, 48 h
HOP-92 = assay: Cytotoxicity against human HOP92 cells after 48 hrs by sulforhodamine B assay; conditions: HOP-92, 48 h
NCI-H226 = assay: Cytotoxicity against human NCI-H226 cells after 48 hrs by sulforhodamine B assay; conditions: NCI-H226, 48 h
NCI-H322M = assay: Cytotoxicity against human NCI-H322M cells after 48 hrs by sulforhodamine B assay
NCI-H460 [10] = assay: Cytotoxicity against human NCI-H460 cells after 48 hrs by sulforhodamine B assay; conditions: NCI-H460, 48 h
NCI-H522 = assay: Cytotoxicity against human NCI-H522 cells after 48 hrs by sulforhodamine B assay; conditions: NCI-H522, 48 h
COLO 205 = assay: Cytotoxicity against human COLO205 cells after 48 hrs by sulforhodamine B assay; conditions: COLO 205, 48 h
HCT-15 = assay: Cytotoxicity against human HCT15 cells after 48 hrs by sulforhodamine B assay; conditions: HCT-15, 48 h
HT-29 = assay: Cytotoxicity against human HT-29 cells after 48 hrs by sulforhodamine B assay; conditions: HT-29, 48 h
KM12 = assay: Cytotoxicity against human KM12 cells after 48 hrs by sulforhodamine B assay; conditions: KM12, 48 h
SW-620 = assay: Cytotoxicity against human SW620 cells after 48 hrs by sulforhodamine B assay; conditions: SW-620, 48 h
SF-268 = assay: Cytotoxicity against human SF268 cells after 48 hrs by sulforhodamine B assay; conditions: SF-268, 48 h
SF-295 = assay: Cytotoxicity against human SF295 cells after 48 hrs by sulforhodamine B assay; conditions: SF-295, 48 h
SF-539 = assay: Cytotoxicity against human SF539 cells after 48 hrs by sulforhodamine B assay; conditions: SF-539, 48 h
SNB-19 = assay: Cytotoxicity against human SNB19 cells after 48 hrs by sulforhodamine B assay; conditions: SNB-19, 48 h
SNB-75 = assay: Cytotoxicity against human SNB75 cells after 48 hrs by sulforhodamine B assay; conditions: SNB-75, 48 h
U-251 = assay: Cytotoxicity against human U251 cells after 48 hrs by sulforhodamine B assay; conditions: U-251, 48 h
PC-3 = assay: Cytotoxicity against human PC3 cells after 48 hrs by sulforhodamine B assay; conditions: PC-3, 48 h
DU-145 = assay: Cytotoxicity against human DU145 cells after 48 hrs by sulforhodamine B assay; conditions: DU-145, 48 h
LOX IMVI = assay: Cytotoxicity against human LOXIMVI cells after 48 hrs by sulforhodamine B assay
Malme-3M = assay: Cytotoxicity against human MALME-3M cells after 48 hrs by sulforhodamine B assay
M14 = assay: Cytotoxicity against human M14 cells after 48 hrs by sulforhodamine B assay; conditions: M14, 48 h
MDA-MB-435 = assay: Cytotoxicity against human MDA-MB-435 cells after 48 hrs by sulforhodamine B assay; conditions: MDA-MB-435, 48 h
SK-MEL-28 = assay: Cytotoxicity against human SK-MEL-28 cells after 48 hrs by sulforhodamine B assay; conditions: SK-MEL-28, 48 h
SK-MEL-5 = assay: Cytotoxicity against human SK-MEL-5 cells after 48 hrs by sulforhodamine B assay; conditions: SK-MEL-5, 48 h
UACC-257 = assay: Cytotoxicity against human UACC257 cells after 48 hrs by sulforhodamine B assay; conditions: UACC-257, 48 h
NCI-H23 = assay: Cytotoxicity against human NCI-H23 cells after 48 hrs by sulforhodamine B assay; conditions: NCI-H23, 48 h
UACC-62 = assay: Cytotoxicity against human UACC62 cells after 48 hrs by sulforhodamine B assay; conditions: UACC-62, 48 h
OVCAR-3 = assay: Cytotoxicity against human OVCAR3 cells after 48 hrs by sulforhodamine B assay; conditions: OVCAR-3, 48 h
OVCAR-4 = assay: Cytotoxicity against human OVCAR4 cells after 48 hrs by sulforhodamine B assay; conditions: OVCAR-4, 48 h
OVCAR-8 = assay: Cytotoxicity against human OVCAR8 cells after 48 hrs by sulforhodamine B assay; conditions: OVCAR-8, 48 h
SK-OV-3 = assay: Cytotoxicity against human SKOV3 cells after 48 hrs by sulforhodamine B assay; conditions: SK-OV-3, 48 h
786-0 = assay: Cytotoxicity against human 786-0 cells after 48 hrs by sulforhodamine B assay; conditions: 786-0, 48 h
A498 = assay: Cytotoxicity against human A498 cells after 48 hrs by sulforhodamine B assay; conditions: A498, 48 h
ACHN = assay: Cytotoxicity against human ACHN cells after 48 hrs by sulforhodamine B assay
SN12C = assay: Cytotoxicity against human SN12C cells after 48 hrs by sulforhodamine B assay
TK-10 = assay: Cytotoxicity against human TK10 cells after 48 hrs by sulforhodamine B assay; conditions: TK-10, 48 h
UO-31 = assay: Cytotoxicity against human UO31 cells after 48 hrs by sulforhodamine B assay; conditions: UO-31, 48 h
MCF7 = assay: Cytotoxicity against human MCF7 cells after 48 hrs by sulforhodamine B assay; conditions: MCF7, 48 h
MDA-MB-231 = assay: Cytotoxicity against human MDA-MB-231 cells after 48 hrs by sulforhodamine B assay; conditions: MDA-MB-231, 48 h
Hs-578T = assay: Cytotoxicity against human Hs578T cells after 48 hrs by sulforhodamine B assay
T47D = assay: Cytotoxicity against human T47D cells after 48 hrs by sulforhodamine B assay

## C[C@H]1O[C@H](O[C@H]2CC[C@@]3(C)[C@H](CC[C@@H]4[C@@H]3CC[C@]3(C)[C@@H](C5=CC(=O)OC5)CC[C@]43O)C2)CC[C@@H]1O
NCI-H460 [1]
  Activity: 16.63%
NCI-H460 [2]
  Activity: 19.63%
NCI-H460 [3]
  Activity: 24.88%
NCI-H460 [4]
  Activity: 58.34%
NCI-H460 [5]
  Activity: 89.05%
NCI-H460 [6]
  Activity: 100%
NCI-H460 [7]
  Activity: 100%
NCI-H460 [8]
  IC50: 387 nM
NCI-H460 [9]
  Activity: 15.33%
MOLT-4
  GI50: 35.3 nM
RPMI-8226
  GI50: 117 nM
SR
  GI50: 79.5 nM
A549
  GI50: 30.6 nM
EKVX
  GI50: 62.1 nM
HOP-62
  GI50: 56.4 nM
HOP-92
  GI50: 128 nM
NCI-H226
  GI50: 168 nM
NCI-H322M
  GI50: 106 nM
NCI-H460 [10]
  GI50: 35.1 nM
NCI-H522
  GI50: 40.8 nM
COLO 205
  GI50: 348 nM
HCT-15
  GI50: 116 nM
HT-29
  GI50: 97 nM
KM12
  GI50: 228 nM
SW-620
  GI50: 52.6 nM
SF-268
  GI50: 37.8 nM
SF-295
  GI50: 71.6 nM
SF-539
  GI50: 43.8 nM
SNB-19
  GI50: 315 nM
SNB-75
  GI50: 99 nM
U-251
  GI50: 35.3 nM
PC-3
  GI50: 101 nM
DU-145
  GI50: 30.5 nM
LOX IMVI
  GI50: 60.6 nM
Malme-3M
  GI50: 182 nM
M14
  GI50: 156 nM
MDA-MB-435
  GI50: 115 nM
SK-MEL-28
  GI50: 186 nM
SK-MEL-5
  GI50: 37.1 nM
UACC-257
  GI50: 157 nM
NCI-H23
  GI50: 42.7 nM
UACC-62
  GI50: 168 nM
OVCAR-3
  GI50: 47.8 nM
OVCAR-4
  GI50: 191 nM
OVCAR-8
  GI50: 76.7 nM
SK-OV-3
  GI50: 194 nM
786-0
  GI50: 58.2 nM
A498
  GI50: 131 nM
ACHN
  GI50: 34.8 nM
SN12C
  GI50: 40.9 nM
TK-10
  GI50: 46.3 nM
UO-31
  GI50: 57 nM
MCF7
  GI50: 79.3 nM
MDA-MB-231
  GI50: 392 nM
Hs-578T
  GI50: 26.1 nM
T47D
  GI50: 409 nM

## C[C@@H]1O[C@@H](O[C@H]2CC[C@@]3(C)[C@H](CC[C@@H]4[C@@H]3CC[C@]3(C)[C@@H](C5=CC(=O)OC5)CC[C@]43O)C2)CC[C@H]1O [RAMNODIGIN]
NCI-H460 [1]
  Activity: 15.1%
NCI-H460 [2]
  Activity: 53.65%
NCI-H460 [3]
  Activity: 87.28%
NCI-H460 [4]
  Activity: 100%
NCI-H460 [5]
  Activity: 100%
NCI-H460 [6]
  Activity: 100%
NCI-H460 [7]
  Activity: 100%
NCI-H460 [8]
  IC50: 48 nM
NCI-H460 [9]
  Activity: 45.71%
MOLT-4
  GI50: 2.57 nM
RPMI-8226
  GI50: 23.5 nM
SR
  GI50: 2.25 nM
A549
  GI50: 1.56 nM
EKVX
  GI50: 5.13 nM
HOP-62
  GI50: 8.55 nM
HOP-92
  GI50: 11.3 nM
NCI-H226
  GI50: 19.3 nM
NCI-H322M
  GI50: 7.78 nM
NCI-H460 [10]
  GI50: 3.83 nM
NCI-H522
  GI50: 9.38 nM
COLO 205
  GI50: 29.6 nM
HCT-15
  GI50: 20.5 nM
HT-29
  GI50: 11.9 nM
KM12
  GI50: 32.4 nM
SW-620
  GI50: 11.1 nM
SF-268
  GI50: 4.28 nM
SF-295
  GI50: 10.4 nM
SF-539
  GI50: 7.8 nM
SNB-19
  GI50: 37.5 nM
SNB-75
  GI50: 14.9 nM
U-251
  GI50: 2.57 nM
PC-3
  GI50: 9.55 nM
DU-145
  GI50: 3.45 nM
LOX IMVI
  GI50: 11.8 nM
Malme-3M
  GI50: 18.3 nM
M14
  GI50: 19.3 nM
MDA-MB-435
  GI50: 27.7 nM
SK-MEL-28
  GI50: 23.1 nM
SK-MEL-5
  GI50: 5.44 nM
UACC-257
  GI50: 19.6 nM
NCI-H23
  GI50: 4.13 nM
UACC-62
  GI50: 12.7 nM
OVCAR-3
  GI50: 4.94 nM
OVCAR-4
  GI50: 18.9 nM
OVCAR-8
  GI50: 2.5 nM
SK-OV-3
  GI50: 22.2 nM
786-0
  GI50: 6.21 nM
A498
  GI50: 20.7 nM
ACHN
  GI50: 4.31 nM
SN12C
  GI50: 3.61 nM
TK-10
  GI50: 3.75 nM
UO-31
  GI50: 5.15 nM
MCF7
  GI50: 5.89 nM
MDA-MB-231
  GI50: 33.9 nM
Hs-578T
  GI50: 4.57 nM
T47D
  GI50: 21 nM
